Consider eight molecules from ChEMBL document CHEMBL6127053, “Discovery of orally bioavailable phosphonate prodrugs of potent ENPP1 inhibitors for cancer treatment” (Eur J Med Chem, 2024).

In brackets after ≈: the same amount, converted by molar mass. Bounds are passed on as bounds.

Data set [1] concerns the target Cytochrome P450 2C9 (Homo sapiens, UniProt P11712). Nature of the data set: Inhibition of CYP2C9 (unknown origin). It is filed as ADME.
Data set [2] concerns the target Cytochrome P450 2C19 (Homo sapiens, UniProt P33261). Kind of data set: Inhibition of CYP2C19 (unknown origin). It is filed as ADME.
Data set [3] concerns the target Cytochrome P450 2D6 (Homo sapiens, UniProt P10635). Kind of data set: Inhibition of CYP2D6 (unknown origin). Format: ADME.
In data set [4] the target is T1, Cytochrome P450 1A2 (Homo sapiens, UniProt P05177).
T1 sequence (P05177 whole entry): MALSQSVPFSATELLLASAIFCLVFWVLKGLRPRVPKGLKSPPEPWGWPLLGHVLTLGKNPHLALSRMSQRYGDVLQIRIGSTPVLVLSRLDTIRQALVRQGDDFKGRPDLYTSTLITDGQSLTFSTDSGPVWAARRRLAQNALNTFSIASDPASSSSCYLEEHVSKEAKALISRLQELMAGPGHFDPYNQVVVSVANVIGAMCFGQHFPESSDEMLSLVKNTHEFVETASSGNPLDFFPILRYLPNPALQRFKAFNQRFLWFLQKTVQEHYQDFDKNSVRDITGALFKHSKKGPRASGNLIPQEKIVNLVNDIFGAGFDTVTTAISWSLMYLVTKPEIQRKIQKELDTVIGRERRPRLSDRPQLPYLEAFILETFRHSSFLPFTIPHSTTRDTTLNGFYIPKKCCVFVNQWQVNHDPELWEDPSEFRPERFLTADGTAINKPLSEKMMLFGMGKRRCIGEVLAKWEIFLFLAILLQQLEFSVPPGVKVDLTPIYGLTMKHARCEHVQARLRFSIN
Kind of data set: Inhibition of CYP1A2 (unknown origin). It is filed as ADME.

Data set [5] deals with Cytochrome P450 3A4 (Homo sapiens, UniProt P08684). Kind of data set: Inhibition of CYP3A4 (unknown origin). It is filed as ADME.
Data set [6] has as its target T2, Ectonucleotide pyrophosphatase/phosphodiesterase family member 1 (Homo sapiens, UniProt P22413).
T2 sequence (P22413 whole entry): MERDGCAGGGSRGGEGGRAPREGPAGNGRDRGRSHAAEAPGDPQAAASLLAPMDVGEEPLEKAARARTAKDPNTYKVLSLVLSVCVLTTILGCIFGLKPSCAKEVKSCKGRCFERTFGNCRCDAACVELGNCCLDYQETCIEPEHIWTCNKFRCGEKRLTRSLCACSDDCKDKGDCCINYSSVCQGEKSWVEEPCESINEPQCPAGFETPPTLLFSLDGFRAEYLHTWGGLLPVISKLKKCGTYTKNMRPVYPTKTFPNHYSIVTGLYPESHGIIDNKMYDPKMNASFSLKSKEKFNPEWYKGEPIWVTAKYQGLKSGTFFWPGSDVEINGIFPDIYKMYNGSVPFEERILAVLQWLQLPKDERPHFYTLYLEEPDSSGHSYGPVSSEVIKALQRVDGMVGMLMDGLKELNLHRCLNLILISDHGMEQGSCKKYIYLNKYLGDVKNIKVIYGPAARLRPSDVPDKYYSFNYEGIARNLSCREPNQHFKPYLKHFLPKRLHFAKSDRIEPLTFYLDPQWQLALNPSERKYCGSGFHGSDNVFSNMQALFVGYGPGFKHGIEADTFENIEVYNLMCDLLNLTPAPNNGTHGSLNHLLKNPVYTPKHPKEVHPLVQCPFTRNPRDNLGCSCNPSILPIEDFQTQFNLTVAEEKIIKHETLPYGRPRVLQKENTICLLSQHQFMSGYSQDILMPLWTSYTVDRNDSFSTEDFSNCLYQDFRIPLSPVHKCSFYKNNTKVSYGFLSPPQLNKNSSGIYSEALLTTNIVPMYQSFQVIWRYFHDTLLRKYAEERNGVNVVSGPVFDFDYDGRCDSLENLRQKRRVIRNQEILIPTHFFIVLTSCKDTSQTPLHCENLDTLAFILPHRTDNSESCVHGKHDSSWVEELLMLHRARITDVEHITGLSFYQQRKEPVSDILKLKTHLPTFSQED
Nature of the data set: Inhibition of ECD-His-tagged human recombinant ENPP1 using 2',3'-cGAMP as substrate preincubated with enzyme for 15 mins followed by substrate addition and incubated in R1 reaction buffer for 1 hr and treated in R2 reaction buffer for 1 hr measured at pH 7.5 by luminescence based analysis.

The target in data set [7] is T2, Ectonucleotide pyrophosphatase/phosphodiesterase family member 1. Kind of data set: Inhibition of ENPP1 (unknown origin) at pH 7.5.
For data set [8], the target named is T3, Ectonucleotide pyrophosphatase/phosphodiesterase family member 1 (Mus musculus, UniProt P06802).
T3 sequence (P06802 whole entry): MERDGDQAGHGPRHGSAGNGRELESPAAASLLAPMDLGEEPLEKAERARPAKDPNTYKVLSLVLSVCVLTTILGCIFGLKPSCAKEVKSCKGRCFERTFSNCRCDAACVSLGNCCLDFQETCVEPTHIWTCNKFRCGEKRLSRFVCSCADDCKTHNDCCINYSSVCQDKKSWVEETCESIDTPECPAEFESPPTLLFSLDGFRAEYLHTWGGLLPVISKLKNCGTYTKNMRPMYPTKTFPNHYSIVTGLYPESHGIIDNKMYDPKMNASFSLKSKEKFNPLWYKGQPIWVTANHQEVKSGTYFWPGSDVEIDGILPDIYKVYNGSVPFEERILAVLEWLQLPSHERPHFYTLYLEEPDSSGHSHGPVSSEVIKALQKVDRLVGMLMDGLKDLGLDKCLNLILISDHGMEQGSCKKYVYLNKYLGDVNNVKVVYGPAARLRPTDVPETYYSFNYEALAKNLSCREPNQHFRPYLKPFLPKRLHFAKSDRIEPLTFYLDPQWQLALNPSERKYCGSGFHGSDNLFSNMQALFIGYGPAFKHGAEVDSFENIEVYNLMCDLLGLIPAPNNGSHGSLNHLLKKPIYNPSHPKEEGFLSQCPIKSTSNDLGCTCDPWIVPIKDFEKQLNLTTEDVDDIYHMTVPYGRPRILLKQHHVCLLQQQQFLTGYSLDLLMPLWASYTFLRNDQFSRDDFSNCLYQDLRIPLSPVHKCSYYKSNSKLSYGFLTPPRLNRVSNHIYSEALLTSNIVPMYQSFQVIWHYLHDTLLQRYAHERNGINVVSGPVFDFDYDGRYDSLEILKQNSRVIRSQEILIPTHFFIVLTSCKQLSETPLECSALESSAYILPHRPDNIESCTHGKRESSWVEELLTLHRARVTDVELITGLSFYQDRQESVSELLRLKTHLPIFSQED

Data set [9] addresses Voltage-gated inwardly rectifying potassium channel KCNH2 (Homo sapiens, UniProt Q12809). Nature of the data set: Inhibition of hERG. It is filed as toxicity.
Data set [10] in a line: Prodrug conversion in mouse assessed as half-life of (4-((7-Methoxy-1,8-naphthyridin-4yl)oxy)benzyl)phosphonic acid metabolite at 5 mg/kg, po measured for 24 hrs by LC-MS/MS analysis. Format: ADME, organism-based. Conditions: in vivo.
Data set [11] in a line: Prodrug conversion in mouse assessed as AUC(0 to t) of (4-((7-Methoxy-1,8-naphthyridin-4yl)oxy)benzyl)phosphonic acid metabolite at 5 mg/kg, po measured for 24 hrs by LC-MS/MS analysis. It is filed as ADME, organism-based. Conditions: in vivo.
Data set [12] in a line: Prodrug conversion in mouse assessed as oral bioavailability of (4-((7-Methoxy-1,8-naphthyridin-4yl)oxy)benzyl)phosphonic acid metabolite at 5 mg/kg measured for 24 hrs by LC-MS/MS analysis. Format: ADME, organism-based. The following applies: in vivo.
The nature of data set [13]: Prodrug conversion in rat assessed as half-life of (4-((7-Methoxy-1,8-naphthyridin-4yl)oxy)benzyl)phosphonic acid metabolite at 5 mg/kg, po measured for 24 hrs by LC-MS/MS analysis. Format: ADME, organism-based. Conditions: in vivo.
Data set [14] is described as follows: Prodrug conversion in rat assessed as AUC (0 to t) of (4-((7-Methoxy-1,8-naphthyridin-4yl)oxy)benzyl)phosphonic acid metabolite at 5 mg/kg, po measured for 24 hrs by LC-MS/MS analysis. It is filed as ADME, organism-based. The following applies: in vivo.
A short description of data set [15]: Prodrug conversion in rat assessed as oral bioavailability of (4-((7-Methoxy-1,8-naphthyridin-4yl)oxy)benzyl)phosphonic acid metabolite at 5 mg/kg measured for 24 hrs by LC-MS/MS analysis. It is filed as ADME, organism-based. Conditions: in vivo.
Data set [16] in a line: Prodrug conversion in dog assessed as half-life of (4-((7-Methoxy-1,8-naphthyridin-4yl)oxy)benzyl)phosphonic acid metabolite at 2 mg/kg, po measured for 24 hrs by LC-MS/MS analysis. Conditions: in vivo. Format: ADME, organism-based, Canis lupus familiaris.
Data set [17] can be described thus: Prodrug conversion in dog assessed as AUC(0 to t) of (4-((7-Methoxy-1,8-naphthyridin-4yl)oxy)benzyl)phosphonic acid metabolite at 2 mg/kg, po measured for 24 hrs by LC-MS/MS analysis. The following applies: in vivo. Format: ADME, organism-based, Canis lupus familiaris.
The nature of data set [18]: Prodrug conversion in dog assessed as oral bioavailability of (4-((7-Methoxy-1,8-naphthyridin-4yl)oxy)benzyl)phosphonic acid metabolite at 2 mg/kg measured for 24 hrs by LC-MS/MS analysis. It is filed as ADME, organism-based, Canis lupus familiaris. The following applies: in vivo.
The subject of data set [19] is Panc02. Kind of data set: Antitumor activity against mouse Panc02 cells implanted in C57BL/6 mouse assessed as inhibition of tumor growth at 200 mg/kg, po bid for 35 days and measured on day 35. The following applies: Panc02, 840 h, time 35 day, read-out: TGI. It is filed as functional.
In data set [20] the test system is Panc02. Nature of the data set: Synergistic antitumor activity against mouse Panc02 cells implanted in C57BL/6 mouse assessed as inhibition of tumor growth at 200 mg/kg, po bid for 35 days and irradiated with 5Gy radiation on days 1,8,15,22,29 and measured on day 35 (reference value: 26%). The following applies: Panc02, light or radiation study, 840 h, time 35 day, read-out: TGI. It is filed as functional.

Data set [21] relates to Panc02. Kind of data set: Synergistic antitumor activity against mouse Panc02 cells implanted in C57BL/6 mouse assessed as inhibition of tumor growth by measuring combination ratio at 200 mg/kg, po bid for 35 days and irradiated with 5Gy radiation on days 1,8,15,22,29 and measured on day 35. The following applies: time 35 day. It is filed as functional.
The nature of data set [22]: Toxicity in C57BL/6 mouse implanted with mouse Panc02 cells assessed as effect on body weight at 200 mg/kg, po bid for 35 days. Format: organism-based. The following applies: in vivo, 840 h, time 35 day.
Data set [23] can be described thus: Prodrug conversion in C57BL/6 mouse implanted with mouse Panc02 cells assessed as time during which unbound plasma concentration of (4-((7-Methoxy-1,8-naphthyridin-4yl)oxy)benzyl)phosphonic acid metabolite exceeds IC90 for inhibition of ENPP1 in mouse EL4 cells at 200 mg/kg, po bid for 35 days. It is filed as ADME, organism-based. Conditions: in vivo, 840 h, time 35 day.

The nature of data set [24]: physchem. Conditions: aqueous, pH 7.4.
Description: Aqueous solubility of the compound at pH 7.4
For data set [25], the target named is T2, Ectonucleotide pyrophosphatase/phosphodiesterase family member 1. Nature of the data set: Inhibition of ENPP1 (unknown origin) at pH 8.8.
Data set [26] has the same target. Kind of data set: Inhibition of human recombinant ENPP1 at pH 8.

Cytochrome P450 2C19, sequence (P33261 whole entry): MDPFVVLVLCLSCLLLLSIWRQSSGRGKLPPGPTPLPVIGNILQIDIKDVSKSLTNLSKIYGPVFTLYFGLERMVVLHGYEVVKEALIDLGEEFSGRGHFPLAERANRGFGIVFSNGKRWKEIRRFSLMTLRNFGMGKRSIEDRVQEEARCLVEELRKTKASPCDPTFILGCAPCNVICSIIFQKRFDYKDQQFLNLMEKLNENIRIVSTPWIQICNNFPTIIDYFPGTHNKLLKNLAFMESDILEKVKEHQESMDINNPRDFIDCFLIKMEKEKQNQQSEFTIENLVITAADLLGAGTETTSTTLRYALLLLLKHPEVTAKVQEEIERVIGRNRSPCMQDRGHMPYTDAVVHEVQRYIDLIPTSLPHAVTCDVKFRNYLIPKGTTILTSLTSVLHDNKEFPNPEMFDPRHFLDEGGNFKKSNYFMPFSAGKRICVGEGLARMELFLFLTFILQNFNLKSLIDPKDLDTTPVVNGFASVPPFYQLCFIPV
Cytochrome P450 3A4, sequence (P08684 whole entry): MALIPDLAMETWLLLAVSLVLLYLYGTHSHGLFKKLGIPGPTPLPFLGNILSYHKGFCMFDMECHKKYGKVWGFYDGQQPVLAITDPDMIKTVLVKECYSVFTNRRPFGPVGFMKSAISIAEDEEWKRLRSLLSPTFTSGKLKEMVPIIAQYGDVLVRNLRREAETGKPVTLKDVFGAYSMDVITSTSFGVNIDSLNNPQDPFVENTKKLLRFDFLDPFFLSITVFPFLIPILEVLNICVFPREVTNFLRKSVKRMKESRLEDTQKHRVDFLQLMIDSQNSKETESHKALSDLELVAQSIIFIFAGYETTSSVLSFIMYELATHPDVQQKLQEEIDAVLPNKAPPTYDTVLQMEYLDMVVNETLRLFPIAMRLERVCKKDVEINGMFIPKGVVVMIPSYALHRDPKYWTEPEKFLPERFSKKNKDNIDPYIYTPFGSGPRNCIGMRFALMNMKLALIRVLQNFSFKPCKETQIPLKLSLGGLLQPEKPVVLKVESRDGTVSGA
Cytochrome P450 2D6, sequence (P10635 whole entry): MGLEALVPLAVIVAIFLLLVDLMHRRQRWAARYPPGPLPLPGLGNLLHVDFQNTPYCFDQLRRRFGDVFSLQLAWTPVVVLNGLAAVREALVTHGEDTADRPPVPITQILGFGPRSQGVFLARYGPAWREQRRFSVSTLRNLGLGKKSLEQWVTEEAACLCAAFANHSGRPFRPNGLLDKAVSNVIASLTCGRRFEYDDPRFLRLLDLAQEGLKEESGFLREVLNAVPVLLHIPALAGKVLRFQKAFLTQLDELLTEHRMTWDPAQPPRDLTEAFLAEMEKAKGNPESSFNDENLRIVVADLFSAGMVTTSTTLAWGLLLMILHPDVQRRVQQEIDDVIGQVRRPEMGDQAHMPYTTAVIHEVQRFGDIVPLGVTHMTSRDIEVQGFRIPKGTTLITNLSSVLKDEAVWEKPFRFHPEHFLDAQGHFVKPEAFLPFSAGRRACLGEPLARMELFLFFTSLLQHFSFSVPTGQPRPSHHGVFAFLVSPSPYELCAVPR
Cytochrome P450 2C9, sequence (P11712 whole entry): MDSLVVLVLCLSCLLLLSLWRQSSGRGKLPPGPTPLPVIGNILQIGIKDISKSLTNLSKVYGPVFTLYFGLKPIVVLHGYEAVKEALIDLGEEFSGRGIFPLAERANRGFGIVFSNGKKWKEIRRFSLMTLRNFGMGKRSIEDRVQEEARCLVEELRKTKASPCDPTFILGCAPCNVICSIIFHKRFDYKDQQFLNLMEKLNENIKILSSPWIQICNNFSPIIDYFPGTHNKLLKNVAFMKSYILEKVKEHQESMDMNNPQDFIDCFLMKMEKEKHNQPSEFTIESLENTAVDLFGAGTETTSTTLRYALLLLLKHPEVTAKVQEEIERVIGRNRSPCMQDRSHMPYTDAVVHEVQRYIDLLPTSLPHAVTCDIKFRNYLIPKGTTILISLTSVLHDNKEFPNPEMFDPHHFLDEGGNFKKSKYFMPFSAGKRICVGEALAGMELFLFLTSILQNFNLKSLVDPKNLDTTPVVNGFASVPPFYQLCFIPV
Voltage-gated inwardly rectifying potassium channel KCNH2, sequence (Q12809 whole entry): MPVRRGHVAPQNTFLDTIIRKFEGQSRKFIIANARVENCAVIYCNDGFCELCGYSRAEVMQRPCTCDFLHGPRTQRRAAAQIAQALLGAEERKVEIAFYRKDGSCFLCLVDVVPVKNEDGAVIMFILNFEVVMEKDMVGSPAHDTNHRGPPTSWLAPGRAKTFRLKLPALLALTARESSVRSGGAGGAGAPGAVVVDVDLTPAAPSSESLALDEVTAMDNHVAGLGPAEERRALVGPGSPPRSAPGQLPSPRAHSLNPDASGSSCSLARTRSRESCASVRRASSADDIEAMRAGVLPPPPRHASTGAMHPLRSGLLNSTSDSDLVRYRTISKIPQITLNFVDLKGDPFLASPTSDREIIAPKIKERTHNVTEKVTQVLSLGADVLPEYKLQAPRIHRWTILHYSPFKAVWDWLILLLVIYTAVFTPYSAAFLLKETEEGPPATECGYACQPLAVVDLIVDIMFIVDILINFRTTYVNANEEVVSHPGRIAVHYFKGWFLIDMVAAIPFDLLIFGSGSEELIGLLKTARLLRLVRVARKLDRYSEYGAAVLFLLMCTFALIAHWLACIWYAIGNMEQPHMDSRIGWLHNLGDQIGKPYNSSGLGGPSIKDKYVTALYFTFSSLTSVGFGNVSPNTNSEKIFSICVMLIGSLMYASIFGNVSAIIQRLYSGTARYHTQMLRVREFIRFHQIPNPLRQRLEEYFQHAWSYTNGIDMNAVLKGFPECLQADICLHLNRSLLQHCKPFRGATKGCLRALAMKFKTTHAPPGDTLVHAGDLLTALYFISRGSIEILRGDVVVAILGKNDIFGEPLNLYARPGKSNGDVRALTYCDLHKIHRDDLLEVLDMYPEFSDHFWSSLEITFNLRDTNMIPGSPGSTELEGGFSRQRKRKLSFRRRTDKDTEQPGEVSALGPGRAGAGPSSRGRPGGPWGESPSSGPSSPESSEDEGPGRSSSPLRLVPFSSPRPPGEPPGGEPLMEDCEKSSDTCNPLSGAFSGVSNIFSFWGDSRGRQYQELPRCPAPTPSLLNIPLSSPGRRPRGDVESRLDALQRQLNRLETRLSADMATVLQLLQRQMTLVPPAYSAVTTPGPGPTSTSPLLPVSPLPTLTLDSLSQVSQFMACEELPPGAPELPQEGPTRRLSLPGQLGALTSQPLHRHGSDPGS

By IC50 is commonly meant the concentration needed to halve the response being measured. As for `COc1ccc2c(Oc3ccc(CC(=O)NO)cc3)ccnc2n1`, the IC50 in [1], in data set [2], in data set [3], in data set [4] and in data set [5] was greater than 50 µM throughout.

Usually Ki stands for a dissociation constant, usually derived from enzyme kinetics or from competition with a known ligand. On to `COc1cccc2c(N3CCC(CCP(=O)(O)O)CC3)ncnc12`, for which the figures for the IC50 in data set [6] and in data set [8] were 6.2 nM and 2.2 nM, respectively. The Ki in [7] is less than 2 nM.

On to `COc1ccc2c(Oc3ccc(C4(C(=O)NO)CCCC4)cc3)ccnc2n1`, for which the IC50 in [1] was found to be 9.2 µM; in data set [2] it was 8.2 µM.

One may read the solubility as the dissolved amount per volume that the medium holds. The low end stands for little dissolved substance, the high end for much dissolved substance. Take `COc1ccc2c(Oc3ccc(CP(=O)(OCOC(=O)C(C)(C)C)OCOC(=O)C(C)(C)C)cc3)ccnc2n1`: the IC50 in [1] is greater than 50 µM; in [2], greater than 50 µM; in [3] it was greater than 50 µM; in [4], greater than 50 µM; in [5], greater than 50 µM; in data set [9], greater than 30 µM. In addition, the values for the t1/2 in data set [10], in [13] and in [16] were 4.2 h, 4.22 h and 1.8 h, respectively. In addition, the AUCt was 937 ng·h/mL in data set [11], 5984 ng·h/mL in data set [14] and 793 ng·h/mL in data set [17]. The figures for the F in data set [12], in [15] and in data set [18] were 17%, 39.8% and 21.1%, respectively. Further, the inhibition in vivo at 200 mg/kg in data set [19] worked out at 11%; in data set [20] it was 51%. Further, the Ratio in [21] is listed as 1.2. Besides, the Activity result in data set [22] was “Non-Toxic”. In [23], the “T>IC90” value was 18 h. Moreover, the solubility in data set [24] stood at 20.6 µM (≈ 11.8 µg/mL).

`COc1ccc2c(Oc3ccc(CP(=O)(O)O)cc3)ccnc2n1`: the IC50 is greater than 50 µM in data set [1]; greater than 50 µM in data set [2]; greater than 50 µM in data set [3]; greater than 50 µM in data set [4]; greater than 50 µM in [5]; greater than 30 µM in data set [9].

As to `NC(=O)c1ccc2c(ncn2Cc2ccc(P(=O)(O)O)cc2)n1`, the inhibition constant (Ki) in data set [25] is less than 10 nM.

Turning to `COc1ccc2c(Oc3ccc(NS(N)(=O)=O)cc3)ccnc2c1`, the inhibition constant (Ki) in [26] is less than 100 nM.

With `COc1ccc2c(Oc3ccc(CC(=O)NO)cc3)ccnc2c1`, the IC50 in [1] worked out at 2.3 µM; in data set [2], 4 µM; in [3], 4.8 µM; in data set [4] it was 8.1 µM; in data set [5] it was 10.3 µM.
